In brackets after ≈: the same amount, converted by molar mass. Like-named read-outs stand apart in the source and are kept apart here.
Experiments:
[1] = test system: Staphylococcus aureus ATCC 29213; test: Mouse thigh abscess infection model; type: in vivo; settings: for ED50: Staphylococcus aureus, ATCC29213; for ED50 / ED80 / Static dose: mice, oral, Inhibitory Effect Sigmoid Emax Model fit; for Average Change logCFU/thigh: neutropenic mice, 6 hours post dose, vs time 0 controls
Description: Compound A (free base) unmilled, and the tosylate salt of Compound A milled were tested in the same mouse thigh abscess model following single oral doses in 0.5% carboxymethyl cellulose. Mice (6 per dosing group) were rendered neutropentic, and the thigh of each mouse was injected with 1×10^5 colony forming units (CFU) of Staphylococcus aureus ATCC 29213. Two hours post infection, mice were dosed with the drug orally, and at 6 hours post dose, bacterial viable counts where determined from the thighs of all the mice. Efficacy was calculated as the average change in CFU/thigh compared to time 0 (time of dosing) controls.

[2] = Pharmacokinetic study in male rats, single oral dose in 80% PEG400; settings: rat, in vivo
[3] = Oral pharmacokinetic study in male rats (oral gavage); type: in vivo, rat; settings: for AUC(0-t) / Cmax: male, CD, rat, po
Description: Compound A (free base) and B (toslyate monohydrate salt of compound A) was administered to male rats, strain CD®, via oral gavage using 1% Poloxamer 407 or 0.5% carboxymethyl cellulose (CMC) as the vehicle (Table 1). All doses were calculated as free base equivalents.
For each dosing group blood was collected from 3 animals at each of the following time points: 0, 0.5, 1, 2, 4, 6, 8, 10, 12, 16, 24, and 48 hours post dose. Plasma was prepared using standard techniques with sodium heparin as anti-coagulant. The Compound A and B plasma concentrations were determined using a GLP-validated LC/MS/MS bioanalytical method. Pharmacokinetic analyses were performed using PK Solutions 2.0™ or WinNonLin 5.1.

[4] = Solubility in cyclodextrins; type: physicochemical; settings: for solubility: aqueous with cosolvent or surfactant or cyclodextrin, thermodynamic from solid
[5] = single oral dose 0.3 mg/kg in 0.5% carboxymethyl cellulose
[6] = single oral dose 1 mg/kg in 0.5% carboxymethyl cellulose
[7] = single oral dose 3 mg/kg in 0.5% carboxymethyl cellulose
[8] = single oral dose 10 mg/kg in 0.5% carboxymethyl cellulose
[9] = single oral dose 30 mg/kg in 0.5% carboxymethyl cellulose
[10] = male, po, 30 mg/kg, single oral dose 30 mg/kg in 80% PEG400, particle state Milled
[11] = male, po, 30 mg/kg, single oral dose 30 mg/kg in 80% PEG400, particle state Unmilled
[12] = plasma, 10 mg/kg, 10 mg/kg (free base equivalents), 0.5% CMC
[13] = plasma, 10 mg/kg, 10 mg/kg (free base equivalents), 1% Poloxamer 407
[14] = plasma, 30 mg/kg, 30 mg/kg (free base equivalents), 0.5% CMC
[15] = plasma, 75 mg/kg, 75 mg/kg (free base equivalents), 0.5% CMC
[16] = single oral dose 30 mg/kg in 80% PEG400, particle state Unmilled
[17] = in vivo, 10 mg/kg, 10 mg/kg (free base equivalents), 0.5% CMC
[18] = in vivo, 10 mg/kg, 10 mg/kg (free base equivalents), 1% Poloxamer 407
[19] = in vivo, 30 mg/kg, 30 mg/kg (free base equivalents), 0.5% CMC
[20] = in vivo, 75 mg/kg, 75 mg/kg (free base equivalents), 0.5% CMC

Cc1c(CN(C)C(=O)/C=C/c2cnc3c(c2)CCC(=O)N3)oc2ccccc12 [Free base, (E)-N-methyl-N-((3-methylbenzofuran-2-yl)methyl)-3-(7-oxo-5,6,7,8-tetrahydro-1,8-naphthyridin-3-yl)acrylamide]
ED50 [1]: 4 mg/kg | ED80 [1]: 8.8 mg/kg | Static dose [1]: 10.5 mg/kg | Average Change logCFU/thigh [1, 5]: 1.6 logCFU/thigh | Average Change logCFU/thigh [1, 6]: 1.35 logCFU/thigh | Average Change logCFU/thigh [1, 7]: 0.3 logCFU/thigh | Average Change logCFU/thigh [1, 8]: 0.36 logCFU/thigh | Average Change logCFU/thigh [1, 9]: −0.29 logCFU/thigh | AUC(0-inf) [2, 10]: 6570 ng·h/mL | AUC(0-t) [2, 10]: 6370 ng·h/mL | Cmax [2, 10]: 1970 ng/mL | half-life [2, 10]: 5.5 h | AUC(0-inf) [2, 11]: 1260 ng·h/mL | AUC(0-t) [2, 11]: 1160 ng·h/mL | Cmax [2, 11]: 421 ng/mL | half-life [2, 11]: 2 h | AUC(0-t) [3, 12]: 980 ng·h/mL | Cmax [3, 12]: 163 ng/mL | AUC(0-t) [3, 13]: 883 ng·h/mL | Cmax [3, 13]: 157 ng/mL | AUC(0-t) [3, 14]: 1620 ng·h/mL | Cmax [3, 14]: 176 ng/mL | AUC(0-t) [3, 15]: 2370 ng·h/mL | Cmax [3, 15]: 246 ng/mL | solubility ([4]; 10% hydroxypropyl beta-cyclodextrin, cyclodextrin concentration 10%, shake-flask technique, read-out: Solubility in Hydroxypropyl Beta-Cyclodextrin): 20 µg/mL (≈ 53.3 µM) | solubility ([4]; 10% hydroxypropyl beta-cyclodextrin, cyclodextrin concentration 10%, evaporating an ethanol/water/DMA blend of cyclodextrin and API and reconstituting with water, read-out: Solubility in Hydroxypropyl Beta-Cyclodextrin): 9 µg/mL (≈ 24 µM) | solubility ([4]; 10% sulfobutyl ether beta-cyclodextrin, cyclodextrin concentration 10%, read-out: Solubility in Sulfobutyl Ether Beta-Cyclodextrin): 7 µg/mL (≈ 18.6 µM)

CS(=O)(=O)O.Cc1c(CN(C)C(=O)/C=C/c2cnc3c(c2)CCC(=O)N3)oc2ccccc12 [Mesylate, (E)-N-methyl-N-((3-methylbenzofuran-2-yl)methyl)-3-(7-oxo-5,6,7,8-tetrahydro-1,8-naphthyridin-3-yl)acrylamide methane sulfonate]
AUC(0-inf) [2, 10]: 6040 ng·h/mL | AUC(0-t) [2, 10]: 5770 ng·h/mL | Cmax [2, 10]: 884 ng/mL | half-life [2, 10]: 5 h

Cc1c(CN(C)C(=O)/C=C/c2cnc3c(c2)CCC(=O)N3)oc2ccccc12.O=S(=O)(O)O [Sulfate, (E)-N-methyl-N-((3-methylbenzofuran-2-yl)methyl)-3-(7-oxo-5,6,7,8-tetrahydro-1,8-naphthyridin-3-yl)acrylamide sulfate]
AUC(0-inf) [2, 16]: 9970 ng·h/mL | AUC(0-t) [2, 16]: 9480 ng·h/mL | Cmax [2, 16]: 1940 ng/mL | half-life [2, 16]: 5.7 h

Cc1c(CN(C)C(=O)/C=C/c2cnc3c(c2)CCC(=O)N3)oc2ccccc12.Cc1ccc(S(=O)(=O)O)cc1.O [Tosylate monohydrate milled, (E)-N-methyl-N-((3-methylbenzofuran-2-yl)methyl)-3-(7-oxo-5,6,7,8-tetrahydro-1,8-naphthyridin-3-yl)acrylamide Tosylate Monohydrate]
Ratio of tosylate monohyrate/free base AUClast ([3]; 10 mg/kg, 0.5% CMC): 2.1 | Ratio of tosylate monohyrate/free base Cmax ([3]; 10 mg/kg, 0.5% CMC): 2.1 | Ratio of tosylate monohyrate/free base AUClast ([3]; 10 mg/kg, 1% Poloxamer 407): 3.0 | Ratio of tosylate monohyrate/free base Cmax ([3]; 10 mg/kg, 1% Poloxamer 407): 2.2 | Ratio of tosylate monohyrate/free base AUClast ([3]; 30 mg/kg, 0.5% CMC): 2.3 | Ratio of tosylate monohyrate/free base Cmax ([3]; 30 mg/kg, 0.5% CMC): 2.5 | Ratio of tosylate monohyrate/free base AUClast ([3]; 75 mg/kg, 0.5% CMC): 1.8 | Ratio of tosylate monohyrate/free base Cmax ([3]; 75 mg/kg, 0.5% CMC): 2.4 | AUC(0-t) [3, 17]: 2040 ng·h/mL | Cmax [3, 17]: 347 ng/mL | AUC(0-t) [3, 18]: 2660 ng·h/mL | Cmax [3, 18]: 348 ng/mL | AUC(0-t) [3, 19]: 3680 ng·h/mL | Cmax [3, 19]: 434 ng/mL | AUC(0-t) [3, 20]: 4260 ng·h/mL | Cmax [3, 20]: 595 ng/mL | solubility ([4]; cyclodextrin concentration 10%, read-out: Solubility in Hydroxypropyl Beta-Cyclodextrin): 26 µg/mL | solubility ([4]; cyclodextrin concentration 10%, read-out: Solubility in Sulfobutyl Ether Beta-Cyclodextrin): 67 µg/mL | solubility ([4]; cyclodextrin concentration 40%, read-out: Solubility in Hydroxypropyl Beta-Cyclodextrin): 370 µg/mL | solubility ([4]; cyclodextrin concentration 40%, read-out: Solubility in Sulfobutyl Ether Beta-Cyclodextrin): 4000 µg/mL | Solubility relative to the free base milled form ([4]; sulfobutyl ether beta-cyclodextrin, cyclodextrin concentration 10%): approximately 10 fold

Cc1c(CN(C)C(=O)/C=C/c2cnc3c(c2)CCC(=O)N3)oc2ccccc12.Cc1ccc(S(=O)(=O)O)cc1 [Tosylate, (E)-N-methyl-N-((3-methylbenzofuran-2-yl)methyl)-3-(7-oxo-5,6,7,8-tetrahydro-1,8-naphthyridin-3-yl)acrylamide p-toluene sulfonate]
ED50 [1]: 1.3 mg/kg | ED80 [1]: 3.4 mg/kg | Static dose [1]: 2.4 mg/kg | Average Change logCFU/thigh [1, 5]: 1.31 logCFU/thigh | Average Change logCFU/thigh [1, 6]: 1.08 logCFU/thigh | Average Change logCFU/thigh [1, 7]: −0.42 logCFU/thigh | Average Change logCFU/thigh [1, 8]: −0.62 logCFU/thigh | Average Change logCFU/thigh [1, 9]: −0.77 logCFU/thigh | AUC(0-inf) [2, 10]: 9510 ng·h/mL | AUC(0-t) [2, 10]: 9460 ng·h/mL | Cmax [2, 10]: 1610 ng/mL | half-life [2, 10]: 3.5 h

— US8263613B2, “Salts, prodrugs and polymorphs of fab I inhibitors” (Affinium Pharmaceuticals, Inc., priority 2007, dated 2012)
